Measurements published in patent US5401736A, “4,5,6,7-tetrahydro-1H-imidazo[4,5-c]pyridine-6-carboxylic acid amide” (Kureha Kagaku Kogyo Kabushiki Kaisha, priority 1992, dated 1995).
Where two headings read alike, the source gives them in different places.

Assays:
[1] = molecular target: T1, angiotensin II receptor type 1 (AT1), suprarenal gland of rabbit (Oryctolagus cuniculus, UniProt P34976); test: Receptor binding test, AT1 (tracer 3H-angiotensin II, displacer DuP753); conditions: room temperature, read-out: Binding inhibition ratio (%) of the test compounds at 1 μM, AT1
T1 construct: Receptor: suprarenal gland of rabbit; from tissue; host or cells: suprarenal gland (adrenal) of rabbit
T1 sequence (P34976 1-359): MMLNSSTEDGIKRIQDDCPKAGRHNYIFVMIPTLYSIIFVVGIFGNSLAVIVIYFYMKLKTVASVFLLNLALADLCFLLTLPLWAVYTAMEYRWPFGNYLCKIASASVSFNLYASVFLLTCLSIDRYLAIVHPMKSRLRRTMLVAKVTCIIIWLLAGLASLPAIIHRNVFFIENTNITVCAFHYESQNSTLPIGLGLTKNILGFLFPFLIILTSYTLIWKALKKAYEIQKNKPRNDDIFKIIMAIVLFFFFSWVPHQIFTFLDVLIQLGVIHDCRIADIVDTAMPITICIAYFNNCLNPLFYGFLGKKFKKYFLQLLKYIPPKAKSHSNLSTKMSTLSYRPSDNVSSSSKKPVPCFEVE
Description: Determination of total binding in the presence of each drug to be tested was made in the following way. A test drug of a predetermined concentration (0.025 ml; dissolved in dimethyl sulfoxide, then diluted two-fold with a buffer attached to the Drug Discovery System and used for assay), a tracer (0.025 ml), and a receptor (0.2 ml) were added to make a total volume of 0.25 ml. After incubation (at room temperature for 3 hours for the angiotensin II receptor type 1 (AT1) and at 37° C. for one hour for the type 2 (AT2)), the reaction mixture was subjected to suction filtration (using GF/C filter paper for AT1 and GF/B filter paper for AT2). The filter paper (tracer-receptor complex) after suction filtration was measured by a y-well counter (ARC-500, Aloka). The non-specific binding was determined by the similar operation by using a large excess of displacer. The specific binding at the predetermined concentration of the test drug was calculated by deducting the non-specific binding from the total binding. The ratio (%) at which the test drugs inhibit binding between radioactive ligand and receptor was determined for both AT1 and AT2 by using the test drugs of the predetermined concentration and a control drug. | *Receptor: suprarenal gland of rabbit Tracer: ^3 Hangiotensin II | (displacer: […])

[2] = molecular target: T2, angiotensin II receptor type 2 (AT2), bovine cerebellar cortex (Bos taurus, UniProt G5E6F7); test: Receptor binding test, AT2 (tracer 125I-Tyr4-angiotensin II, displacer angiotensin II (human)); conditions: 1 h, read-out: Binding inhibition ratio (%) of the test compounds at 1 μM, AT2
T2 construct: Receptor: bovine cerebellar cortex; from tissue; host or cells: bovine cerebellar cortex
T2 sequence (G5E6F7 1-362): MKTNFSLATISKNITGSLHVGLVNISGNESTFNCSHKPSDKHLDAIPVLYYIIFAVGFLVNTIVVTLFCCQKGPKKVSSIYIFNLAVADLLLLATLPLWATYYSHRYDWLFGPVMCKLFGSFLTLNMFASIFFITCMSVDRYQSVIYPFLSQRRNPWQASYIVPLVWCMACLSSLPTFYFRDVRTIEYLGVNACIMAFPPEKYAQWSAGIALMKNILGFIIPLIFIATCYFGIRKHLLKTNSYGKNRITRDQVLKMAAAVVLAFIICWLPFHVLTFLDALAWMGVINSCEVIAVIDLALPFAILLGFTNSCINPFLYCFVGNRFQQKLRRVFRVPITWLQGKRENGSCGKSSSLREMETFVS
Description: Determination of total binding in the presence of each drug to be tested was made in the following way. A test drug of a predetermined concentration (0.025 ml; dissolved in dimethyl sulfoxide, then diluted two-fold with a buffer attached to the Drug Discovery System and used for assay), a tracer (0.025 ml), and a receptor (0.2 ml) were added to make a total volume of 0.25 ml. After incubation (at room temperature for 3 hours for the angiotensin II receptor type 1 (AT1) and at 37° C. for one hour for the type 2 (AT2)), the reaction mixture was subjected to suction filtration (using GF/C filter paper for AT1 and GF/B filter paper for AT2). The filter paper (tracer-receptor complex) after suction filtration was measured by a y-well counter (ARC-500, Aloka). The non-specific binding was determined by the similar operation by using a large excess of displacer. The specific binding at the predetermined concentration of the test drug was calculated by deducting the non-specific binding from the total binding.

[3] = 1 μM, receptor: bovine cerebellar cortex, 37° C., one hour

inhibition at 1 µM [1] [%]	inhibition at 1 µM [2, 3] [%]	Structure (SMILES)	inhibition at 1 µM [2] [%]
100	0	CCCCc1nc2c(n1Cc1ccc(NC(=O)c3ccccc3C(=O)O)c(C)c1)C[C@@H](C(=O)N1CCOCC1)N(C(=O)C(c1ccccc1)c1ccccc1)C2 [Compound I-30]	
0	65	Cc1cc(Cn2cnc3c2CC(C(=O)O)N(C(=O)C(c2ccccc2)c2ccccc2)C3)ccc1N (centres unmarked) [PD123177, reference compound]	
100	0	CCCCc1nc2c(n1Cc1ccc(-c3ccccc3-c3nn[nH]n3)cc1)C[C@@H](C(=O)N1CCSCC1)N(C(=O)C(c1ccccc1)c1ccccc1)C2 [Compound I-32]	
78	0	CCCc1nc2c(n1Cc1ccc(-c3ccccc3-c3nn[nH]n3)c(C)c1)CC(C(=O)O)N(C(=O)C(c1ccccc1)c1ccccc1)C2 (centres unmarked) [Reference compound 26, reference compound]	
75	0	CCCc1nc2c(n1Cc1ccc(-c3ccccc3-c3nn[nH]n3)cc1)CC(C(=O)O)N(C(=O)C(c1ccccc1)c1ccccc1)C2 (centres unmarked) [Reference compound 50, reference compound]	
100	0	CCCCc1nc2c(n1Cc1ccc(-c3ccccc3C(=O)O)cc1)C[C@@H](C(=O)N(C)C)N(C(=O)C(c1ccccc1)c1ccccc1)C2 [Compound I-17]	
0	72	COC(=O)C1Cc2c(ncn2Cc2ccc(NC(=O)c3ccccc3C(=O)O)c(C)c2)CN1C(=O)C(c1ccccc1)c1ccccc1 (centres unmarked) [Reference compound 2, reference compound]	
0	100	O=C(O)c1ccc(Cn2cnc3c2C[C@@H](C(=O)N2CCOCC2)N(C(=O)C(c2ccccc2)c2ccccc2)C3)cc1 [Compound I-21]	
0	100	Cc1cc(Cn2cnc3c2C[C@@H](C(=O)N(C)C)N(C(=O)C(c2ccccc2)c2ccccc2)C3)ccc1NC(=O)c1ccccc1C(=O)O [Compound I-2, (S)-1-(4-(2-carboxybenzoylamino)-3-methylphenyl)methyl-N,N-dimethyl-5-diphenylacetyl-4,5,6,7-tetrahydro-1H-imidazo[4,5-c]pyridine-6-carboxamide]	
0	76	O=C(O)C1Cc2c(ncn2Cc2ccc(-c3ccccc3-c3nn[nH]n3)cc2)CN1C(=O)C(c1ccccc1)c1ccccc1 (centres unmarked) [Reference compound 27, reference compound]	
0	100	CN(C)C(=O)[C@@H]1Cc2c(ncn2Cc2ccc(NC(=O)c3ccccc3C(=O)O)cc2)CN1C(=O)C(c1ccccc1)c1ccccc1 [Compound I-1]	
100	0	CCCCc1nc2c(n1Cc1ccc(NC(=O)c3ccccc3C(=O)O)c(C)c1)C[C@@H](C(=O)N(C)C)N(C(=O)C(c1ccccc1)c1ccccc1)C2 [Compound I-12]	
0	71	Cc1cc(Cn2cnc3c2CC(C(=O)O)N(C(=O)C(c2ccccc2)c2ccccc2)C3)ccc1NC(=O)c1ccccc1C(=O)O (centres unmarked) [Reference compound 1, reference compound]	
100	0	CCCCc1nc2c(n1Cc1ccc(-c3ccccc3-c3nn[nH]n3)cc1)C[C@@H](C(=O)N1CCOCC1)N(C(=O)C(c1ccccc1)c1ccccc1)C2 [Compound I-31]	
100	0	CCCCc1nc2c(n1Cc1ccc(-c3ccccc3-c3nn[nH]n3)cc1)C[C@@H](C(=O)N(CC)CC)N(C(=O)C(c1ccccc1)c1ccccc1)C2 [Compound I-40]	
100	0	CCCCc1nc2c(n1Cc1ccc(-c3ccccc3-c3nn[nH]n3)c(C)c1)C[C@@H](C(=O)N(C)C)N(C(=O)C(c1ccccc1)c1ccccc1)C2 [Compound I-19]	
0	100	Cc1cc(Cn2cnc3c2C[C@@H](C(=O)N2CCOCC2)N(C(=O)C(c2ccccc2)c2ccccc2)C3)ccc1NC(=O)c1ccccc1C(=O)O [Compound I-7]	
0	100	O=C([C@@H]1Cc2c(ncn2Cc2ccc(-c3ccccc3-c3nnn[nH]3)cc2)CN1C(=O)C(c1ccccc1)c1ccccc1)N1CCOCC1 [Compound I-24, 4-[[(S)-5-diphenylacetyl-1-[(2'-(1H-tetrazol-5-yl)biphenyl-4-yl)methyl]-4,5,6,7-tetrahydro-1H-imidazo[4,5-c]pyridin-6-yl]carbonyl]morpholine]	

Structure (SMILES)	inhibition at 1 µM [1] [%]	inhibition at 1 µM [2, 3] [%]	inhibition at 1 µM [2] [%]
CCCCc1nc(Cl)c(CO)n1Cc1ccc(-c2ccccc2-c2nn[nH]n2)cc1 [DuP753, reference compound]	70		0
